Patent US7759317B2, “Analgesic and anti-inflammatory compositions and methods with flavonoid glycoside-type compounds” (BMB Patent Holding Corporation, priority 2006, dated 2010)
Values joined by “and” are separate entries in the source; they are usually repeats but may differ in a detail not shown here. Identical values can stand only once.

Assays:
[1] = test system: capsaicin-treated hindpaw; assay: Analgesic Bioassay Protocol: rat hindpaw withdrawal latency to radiant heat after capsaicin sensitisation; format: in vivo, Sprague-Dawley rats; settings: n=5
Procedure: A rat hindpaw assay was used to determine the therapeutic effectiveness of various extracts/compounds as analgesics in the present invention. Sprague-Dawley rats (225-250 g, male) were anesthetized with urethane and placed on their sides on a disposable Chux pad. Both hindpaws for each rat were blackened with India ink which was allowed to dry for 10 minutes. An ELH projector lamp calibrated to a standard mW/cm was used as a pain stimulus and was condensed into an area of 5×15 mm on each hindpaw and placed perpendicular to, and 72 mm from, each hindpaw. Multiple baseline hindpaw withdrawal latency times were recorded (in seconds) for each medial and each lateral surface of each hindpaw. Subsequently, 100 μl of 1 μmolar capsaicin was applied with a pipette to cover one hindpaw of each animal and allowed to dry for 10 minutes, rendering the capsaicin-treated hindpaw hypersensitive to pain stimulus relative to the non-capsaicin treated hindpaw (and thereby decreasing the withdrawal latency period for the capsaicin-treated hindpaw relative to the non-treated hindpaw). Both hindpaws were then re-blackened with India ink which was allowed to dry for 10 minutes, and hindpaw withdrawal latencies were recorded for both the capsaicin-treated and untreated hindpaws on both the medial and lateral aspects of both hindpaws at 20, 25 and 30 minutes. […] By contrast, only minor drops in the withdrawal latency periods of the untreated hindpaws was seen, and the effect that was observed is believed to be due to the central mechanism effect of capsaicin-treatment on the other hindpaw. To determine the analgesic properties of each fraction, 100 μl of each fraction were applied to the capsaicin-treated hindpaw by pipette and permitted to dry (the untreated hindpaw was not treated with the fraction). Hindpaw withdrawal latencies were then recorded at 5, 20 and 30 minutes for both the capsaicin/fraction-treated hindpaw and the untreated hindpaw. An increase in the hindpaw withdrawal time was indicative of an analgesic effect by the applied fraction.

[2] = test system: mouse air pouch; assay: Inflammation Bioassay Protocol: mouse air pouch assay, carrageenan-induced, white blood cell count in exudate; format: in vivo, mice
Procedure: A mouse air pouch assay was used to determine the therapeutic effectiveness of various extracts/compounds as anti-inflammatories in the present invention.
To induce air pouches, 10-15 week old mice were injected subcutaneously on the back with 3 ml of air.
On day 2, the pouches were reinflated with 1.5 m. of air.
On day 6, inflammation was induced by injecting 1 ml of a suspension of carrageenan (2% weight/volume in calcium-free and magnesium-free phosphate buffered saline (PBS) solution) into the air pouch.
100 μL of solution including test compounds were injected with the carrageenan (additional 100 μL of PBS were injected into the controls).
After 4 hours, the mice were sacrificed by including C02 narcosis, the pouches were flushed with 2 ml of PBS, and exudates were harvested.
Exudates were diluted 1:1 with 0.015% methylene blue in PBS.
White blood cells were counted in a standard hemocytometer chamber (American Optical, Buffalo, N.Y.).

[3] = white blood cells in air pouch exudate, individual mice, 4 hours after carrageenan

In the case of O=c1cc(-c2ccc(O)c(O)c2)oc2cc(OC3OC(COC4OCC(O)(CO)C4O)C(O)C(O)C3O)cc(O)c12 [Compound 580, luteolin 7-(6″-β-D-apiofuranosyl)-β-D-glucopyranoside], the “Avg All Cap” value ([1]; average of all post-capsaicin latencies, before test substance) is reported as 6.3 s, the “Avg Ext 5” value ([1]; latency 5 minutes after application to capsaicin-treated hindpaw, amount (mg)) is reported as 13.7 s and the “Avg Ext 20” value ([1]; latency 20 minutes after application to capsaicin-treated hindpaw, amount (mg)) is reported as 9.6 s. The “Avg Cap 20” value ([1]; latency 20 minutes after capsaicin, before test substance) was 5.8 s, the “Avg Cap 25” value ([1]; latency 25 minutes after capsaicin, before test substance) was 7.2 s and the “Avg Ext 30” value ([1]; latency 30 minutes after application to capsaicin-treated hindpaw, amount (mg)) was 9.4 s. For the same molecule, the “Avg Cap 30” value ([1]; latency 30 minutes after capsaicin, before test substance) was 6 s, the “Avg Baseline” value ([1]; withdrawal latency before capsaicin and before test substance) was 9.3 s and the “Average Cells (10^6/ml)” value ([2]; mean of five treated mice, control mice 2.67) was 1.00 10^6/ml. The “anti-inflammatory effects, comparison with reference drugs” value ([2]; result in words) was “comparable to 0.5-1.0 mg/kg/week of chronic methotrexate, or 1.5 mg/kg acute dose of dexamethasone”, the “Cells (10^6/ml)” value [2, 3] was 0.75 10^6/ml and 1.17 10^6/ml and 0.72 10^6/ml and 1.16 10^6/ml and 1.22 10^6/ml and the Cells/ml [2, 3] was 7.50E+05 Cells/ml and 1.17E+06 Cells/ml and 7.20E+05 Cells/ml and 1.16E+06 Cells/ml and 1.22E+06 Cells/ml. The “Average Count” value ([2]; white blood cells, average of 4 hemocytometer chambers, individual mice, 100 μL test solution with carrageenan, exudate after 4 hours) was 37.50 and 58.50 and 24.00 and 38.75 and 40.50.
